Data from US9737525B2, “Small molecule activators of NRF2 pathway” (The General Hospital Corporation, priority 2013, dated 2017).

What was measured:
[1] = tested on: NQO1; experiment: Quantitative NQO1 inducer bioassay in Hepa1c1c7 cells; assay type: cell-based, murine; details: for Effect of GSH pre-incubation on NQO1 inducer potency: 1 mM GSH at 37° C. for 30 min before cell treatment; for CD value (Concentration which Doubles the specific activity of NQO1): Hepa1c1c7 cells; for CD value (Concentration which Doubles the specific activity of NQO1) / EC (2-fold NQO1 activity): 48 hr exposure; for EC (2-fold NQO1 activity): Mus musculus, Hepa-1c1c7, Table 3, Concentration which Doubles the specific activity of NQO1, read-out: NQD1 CD
Procedure: Cells grown in 96-well plates were exposed to serial dilutions of each compound for 48 hr, and the NQO1 enzyme activity was determined in cell lysates. Results are shown as average values of 8 replicate wells. The standard deviation in each case was less than 5%.
Next, using a quantitative NQO1 inducer bioassay in murine Hepa1c1c7 cells and the CD value (Concentration which Doubles the specific activity of NQO1) as a measure of potency (see Table 2), the activities of the MIND4 analogs were tested and ranked.
Inducer potency was quantified by use of the NQO1 bioassay in Hepa1c1c7 cells as described [Prochaska, 1988]. To examine the effect of GSH on inducer potency, compounds were incubated in cell culture medium containing 1 mM GSH at 37° C. for 30 min before cell treatment.

[2] = tested on: primary cortical neurons expressing 140Q full-length mutant huntingtin; experiment: Neuronal viability assay (MTT), wild type and HD primary cortical neurons; assay type: cell-based, mouse; details: for Cytotoxicity in primary neurons: 0.5 μM and higher
Procedure: Embryonic tissue from wild type and 140Q mouse brains (E15-E17 days into pregnancy) was used to isolate and plate cortical neurons as described (Valencia et al., 2013). Neurons were plated at 8×10^5 cell/ml in a 24-well plate supplemented with 25 μM of L-glutamate and 10 μM of 2-β-mercapto-ethanol (Gibco). Plates were previously coated with poly-L-lysine (30-70 kDa, SIGMA) in borate buffer at pH 8.0 and coated again using DMEM/F12+FBS 10% for 2 hours prior to plating. After 3 days in culture, neurons were treated with 10 μM of β-D-cytosine arabinofurinoside for 24 hours to prevent the proliferation of non-neuronal cells.
Neurons were supplemented with MIND4 at different concentrations 0, 0.1, 0.25 and 0.5 μM at days in vitro 4, 6 and 8 (FIG. 3A). […] To maintain drug concentrations, half of the culture media was replenished with fresh media at each time point and MIND4 treatment doses were adjusted accordingly. Cell viability was measured at DIV 10 as previously described based on the ability of viable neurons to transformed MTT (3-(4,5-Dimethylthiazol-2-yl)-2,5-diphenyltetrazolium bromide) into formazan blue crystals (Valencia et al., 2013). Neurons were incubated with 0.5 mg/ml of MTT for 15 minutes, media was then discarded and formazan blue crystals were dissolved in DMSO 100% and read at 540 nm in a Vector plate reader. Results are expressed as Mean±Standard deviation absorbance units at 540 nm (AU). P values were obtained using a Student's t-test from an N=6 wells per condition for treated wild type and HD neurons.
Cell survival was measured as MTT transformation at 10 days in vitro (DIV). Neurons were treated three times with the compounds at 4, 6 and 8 DIV at the indicated concentrations. Two independent experiments were performed with a total of 13 embryos per genotype, 6 WT and 7 HD respectively; 6 wells were used for each experimental condition (compound dose).

[3] = tested on: LUHMES cells overexpressing aSyn; experiment: Viability assay (adenylate kinase release) in differentiated LUHMES cells overexpressing aSyn; assay type: cell-based; details: 0.4 μM and 1 μM, 96 hr
Procedure: LUHMES cells were maintained as proliferating cultures and differentiated into post-mitotic-like neurons on Nunclon plates and flasks, pre-coated with 50 μg/mL poly-L-ornithine (Sigma) and 1 μg/mL fibronectin (Sigma). Specifically, 8×10^6 proliferating LUHMES cells were seeded into a T175 flask containing proliferation medium, consisting of advanced DEMEM/F12 (Invitrogen), 2 mM L-glutamine (Sigma-Aldrich), 1×N2 supplement (Invitrogen) and 40 ng/mL recombinant human bFGF (R&D Systems). After 24 hr, proliferation medium was replaced with differentiation medium, composed of advanced DMEM/F12 (Invitrogen), 2 mM L-glutamine (Sigma-Aldrich), 1×N2 supplement (Invitrogen), 1 mM dibutyryl 3′, 5′-cyclic adenosine monophosphate (Sigma-Aldrich), 2.25 μM tetracycline and 2 ng/mL recombinant human GDNF (R&D Systems). 48 hr later, cells were trypsinized and seeded into 24-well plates, containing 1 mL of differentiation medium and 250,000 cells/well.
For lenti-virus based expression the following transfer plasmids have been constructed. […] The measurement of transgene expression has been determined by qRT PCR using SYBR GREEN, after infection of 293-Hek-cells, and specific primers to the woodchuck hepatitis virus posttranscriptional regulatory element (WPRE) as described previously (PMID: 12718761). […]

[4] = 0.25 μM, treated at 4, 6 and 8 DIV, MTT at 10 DIV

Row | Compound | Effect of GSH pre-incubation on NQO1 inducer potency [1] | CD value (Concentration which Doubles the specific activity of NQO1) [1] [µM] | EC (2-fold NQO1 activity) [1] [µM] | Survival of HD neurons ([2]; 0.1 μM) | Survival of HD neurons ([2]; 0.1 μM and 0.25 μM, treated at DIV 4, 6, 8, MTT at DIV 10) | Survival of HD neurons [2, 4] | Cytotoxicity in primary neurons [2] | Effect on control cortical neurons from wild type mice ([2]; 7 days of treatment) | Protection against αSyn toxicity [3]
1 | O=[N+]([O-])c1ccc(Sc2nnc(COc3ccccc3)n2-c2ccccc2)c2ncccc12 [MIND4, 5-nitro-8-{[5-(phenoxymethyl)-4-phenyl-4H-1,2,4-triazol-3-yl]thio}quinoline] | much less pronounced effect | 1.3 | 1.3 | partially improved survival | improved survival of HD neurons at both doses | enhanced survival of HD neurons | cytotoxic | No effects | only mild protection
2 | O=[N+]([O-])c1ccc(Sc2nnc(COc3ccccc3)n2-c2ccccc2)nc1 [MIND4-17] | drastically reduced the potency | 0.15 | 0.15 | – | – | enhanced survival of HD neurons | cytotoxic | – | significant protective effects
